From patent publication US9062039B2, “Therapeutic compounds” (CHANGZHOU LE SUN PHARMACEUTICALS LIMITED, priority 2012, dated 2015)
Read-outs that look alike come from different tables or passages of the source.

Key:
[1] = system: MCF-7 (human breast carcinoma); experiment: 48h MTT proliferation assay; format: cell-based
[2] = system: HCT-116 (human colon carcinoma); experiment: 48h MTT proliferation assay; format: cell-based
Patient CLL B-cells = experiment: Ex vivo CLL assay (Annexin V apoptosis, flow cytometry); format: cell-based, human; conditions: up to 48 h
Normal B-cells = experiment: as above; format: cell-based, human; conditions: up to 48 h
Normal T-cells = experiment: as above; format: cell-based, human; conditions: up to 48 h
[3] = Determination of pharmacokinetics in mice; format: in vivo; conditions: male, CD1, mouse, plasma; Mice PK, 10 mg/kg, po; read-out: Oral bioavailability F %
Description: For PK measurements male adult CD1 mice weighing 25-30 g (Charles River) are split into weight matched groups of 3 per group. The mice were held at the scruff of the neck and orally dosed via a metal gavage directly into the stomach. Immediately after dosing mice are returned to their cage, plastic box cage with sawdust bedding, and food and water available. Blood samples were collected from the mouse under anaesthesia by cardiac puncture using a 1 mL syringe and 25 gauge needle at time zero and at intervals up to 8 h. Harvested blood was centrifuged at 7000×G for 2 minutes, and the plasma aspirated and frozen at −20° C. until analysis. Quantitative compound level analysis was carried out using LC-MS/MS methods. Pharmacokinetic data derived using PK Solutions 2.0, non-compartmental analysis. Oral bioavailability (% F) was calculated by taking the ratio of dose-normalised AUC values from oral versus parenteral dosing.

[4] = system: primary CLL cells co-cultured with CD40L-expressing mouse embryonic fibroblasts; experiment: Synergy between CDKI-73 and fludarabine under CD40L co-culture; format: cell-based, human; conditions: CDKI-73 combined with fludarabine, other two additive
Description: Lymphocytes were separated using Ficoll-Hypaque (Sigma, Poole, UK) and autologous plasma was collected for use in some experiments. Separated lymphocytes were maintained in RPMI medium supplemented with 10% fetal bovine serum (FBS), penicillin (50 U/ml), streptomycin (50 μg/ml) and recombinant human IL-4 (R and D Systems, Abingdon, UK) (5 ng/ml). […] The significance of differences between experimental conditions was determined using the Student's t test for paired and unpaired observations. To assess the interaction between agents, the median effect method was employed using CalcuSyn software (CalcuSyn; Biosoft International, Ferguson, Mo.). The combination index was calculated for the two-drug combination using an experimentally determined fixed concentration ratio.

[5] = system: MCL1, BCL2, XIAP, CCND1 and CCND2 expression in CLL cells; experiment: Gene expression profiling (Affymetrix microarray); format: cell-based, human
From the text: The detailed protocol for sample preparation and microarray processing is available from Affymetrix (http://www.affymetrix.com). […] After second strand synthesis, the resulting cDNA was subjected to an in vitro transcription reaction using a Bioarray kit (Enzo Diagnostics, New York, N.Y., USA) to generate biotinylated cRNA. This was subsequently fragmented and hybridized to the Affymetrix U133 2.0 Gene Chips. After hybridization, each microarray was washed, stained and scanned with an argon-ion confocal laser, with excitation at 488 nm and detection at 570 nm. The significance of differences between experimental conditions was determined using the Student's t test for paired and unpaired observations. To assess the interaction between agents, the median effect method was employed using CalcuSyn software (CalcuSyn; Biosoft International, Ferguson, Mo.). The combination index was calculated for the two-drug combination using an experimentally determined fixed concentration ratio. […] Affymetrix gene expression data were processed using Partek Genomics Suite (Partek Inc. Saint Louis, USA).

[6] = system: MCL1 transcription in CLL cells; experiment: Real-time reverse transcription-PCR of MCL1; format: cell-based, human; conditions: 4 h, with and without CD40L co-culture
Description: CDKI-73, 100:1) for 4 h using the method described by Walsby et al. (Oncotarget 3, 525-34 (2012)).

[7] = system: primary CLL cells co-cultured with CD40L-expressing mouse embryonic fibroblasts; conditions: fludarabine alone; Walsby et al. 2012; cited from earlier work
[8] = MCF7, read-out: 48h-MTT Anti-proliferative activity GI50 MCF-7 (human breast carcinoma), Table 2, 48 h
[9] = MCF7, read-out: 48h-MTT cytotoxicity GI50 MCF-7, Table 1, 48 h
[10] = HCT-116, read-out: 48h-MTT Anti-proliferative activity GI50 HCT-116 (human colon carcinoma), Table 2, 48 h
[11] = HCT-116, read-out: 48h-MTT cytotoxicity GI50 HCT-116, Table 1, 48 h

| SMILES | GI50 [1, 8] [nM] | GI50 [1, 9] [nM] | GI50 [2, 10] [nM] | GI50 [2, 11] [nM] | Ex vivo efficacy, LD50 Patient CLL B-cells (Patient CLL B-cells) [µM] | Ex vivo efficacy, LD50 Normal B-cells (Normal B-cells) [µM] | Ex vivo efficacy, LD50 Normal T-cells (Normal T-cells) [µM] | bioavailability [3] [%] | samples tested that showed cytotoxic synergy [4] | expression of MCL1, BCL2, XIAP and CCND1 and D2 ([5]; combination 0.1 μM CDKI-73 and 10 μM fludarabine, 4 h) | expression of MCL1, BCL2, XIAP and CCND1 and CCND2 ([5]; single agent, 0.1 μM CDKI-73, 4 h) | MCL1 transcription (QRT-PCR) ([6]; CDKI-73 in combination with fludarabine (100:1)) | MCL1 transcription (QRT-PCR) ([6]; single agent) | cytotoxic effects of fludarabine under CD40L co-culture [7] |
| --- | --- | --- | --- | --- | --- | --- | --- | --- | --- | --- | --- | --- | --- | --- |
| CNc1nc(C)c(-c2nc(Nc3cccc(S(N)(=O)=O)c3)ncc2C#N)s1 [Comparator, 3-(5-cyano-4-(4-methyl-2-(methylamino)thiazol-5-yl)pyrimidin-2-ylamino)benzenesulfonamide, reference compound] | 480 | 480 | 430 | 440 | 0.43 | 89 | 350 | 7 | – | – | – | – | – | – |
| CNc1nc(C)c(-c2nc(Nc3cccc(S(N)(=O)=O)c3)ncc2F)s1 [Example 1, 3-(5-Fluoro-4-(4-methyl-2-(methylamino)thiazol-5-yl)pyrimidin-2-ylamino)benzene sulfonamide] | 50 | 30 | 60 | 30 | 0.08 | 40.5 | 506.3 | 56 | 8/10 | marked repression | down regulated | significantly inhibited | significantly inhibited | – |
| CNc1nc(C)c(-c2nc(Nc3cccc(S(N)(=O)=O)c3)ncc2Cl)s1 [Example 3, 3-(5-chloro-4-(4-methyl-2-(methylamino)thiazol-5-yl)pyrimidin-2-ylamino)benzene sulfonamide] | – | 60 | – | 30 | – | – | – | – | – | – | – | – | – | – |
| Nc1nc(F)nc2c1ncn2[C@@H]1O[C@H](CO)[C@@H](O)[C@@H]1O [fludarabine] | – | – | – | – | – | – | – | – | – | – | – | – | – | completely abrogates |
